Measured values as given in US20240293384A1, “METHODS AND COMPOSITIONS FOR TREATMENT OF COVID-19” (priority 2021, published 2024).

Legend:
[1] = test system: SARS-CoV-2; format: cell-based, SARS-CoV-2 (Seattle strain)
[2] = test system: tubulin network; assay: mRNA sequencing and IPA analysis of SARS-CoV-2-infected neurons; format: cell-based, human; settings: neurons infected with virus for 24 hours, treated vs vehicle (DMSO)
[3] = test system: SARS-CoV-2; format: cell-based
[4] = test system: Calu3 cells; assay: RNAseq of infected Calu3 cells, DEG reversal z-score analysis; format: cell-based, human; settings: overlapping genes with FDR<10%

O=[N+]([O-])c1ccc(Sc2nnc(COc3ccccc3)n2-c2ccccc2)nc1 [MIND4-17, 5-Nitro-2-{[5-(phenoxymethyl)-4-phenyl-4H-1,2,4-triazol-3-yl]thio}pyridine]
SARS-CoV-2 levels determined by qPCR for Spike mRNA [1]: dramatic reduction in Spike transcripts
expression of tubulins in mRNAseq (IPA Coronavirus Replication Pathway) [2]: downregulated

O=[N+]([O-])c1ccc(Sc2nnc(COc3ccccc3)n2-c2ccccc2)c2ncccc12 [MIND4]
viral RNA levels (qPCR, Spike RNA) [3]: dramatic reduction in viral RNA levels
restoration of gene expression of infected cells to uninfected levels (log 2 fold change z-scores) [4]: significant restoration back to uninfected state
